Laboratory results from patent US4818761A, “2-(4-pyridylaminomethyl)-benzimidazole derivatives having antiviral activity” (priority 1986, dated 1989).
In brackets after ≈: the same amount, converted by molar mass.

Columns and labels:
[1] = tested on: poliovirus type 2 (Polio2); test: microbe, parasite or virus in culture; assay type: cell-based; conditions: for CI Polio2 (C)/(A): CI = CD50 (LLC-MK2)/IC50 (plaque); for IC50: Enterovirus C, LLC-MK2, read-out: IC50 Polio2
[2] = tested on: enterovirus type 70 (EV70); test: Inhibition of EV70 plaque formation in LLC-MK2 cells; assay type: cell-based; conditions: for CI EV70 (C)/(A): CI = CD50 (LLC-MK2)/IC50 (plaque); for IC50: Enterovirus D, plaque reduction, LLC-MK2 cells, 33° C.
[3] = tested on: rhinovirus type 14 (HRV14); test: Inhibition of HRV14 plaque formation in HeLa cells; assay type: cell-based; conditions: for IC50: Enterovirus, HRV14, plaque reduction, HeLa cells, 33° C.; for CI HRV14 (D)/(B): CI = CD50 (HeLa)/IC50 (plaque)
CB4 strain 637 = test: Anti-coxsackievirus activity in vivo, CB4-induced hypoglycemia in SJL/J mice; conditions: single, daily intraperitoneal doses as low as 20 mg/kg, initiated 2 hr after infection and continued for 5 days
Method: Anti-coxsackievirus activity, in vivo. Compound No. XII and XXI were examined for its activity against CB4-induced hypoglycemia in SJL/J mice. […] Blood specimens were collected from the tail vein of each mouse before and 2, 3, 4 and 5 days after infection for assaying its plasma glucose levels. The differences in mean relative plasma glucose of uninfected control and compound-treated groups or placebo groups were evaluated by Student's t-test.

in vitro [4] = conditions: monkey, llc-mk2 cells
[5] = tested on: coxsackievirus type B4 (CB4); test: Inhibition of CB4 plaque formation in LLC-MK2 cells; assay type: cell-based; conditions: for CI CB4 (C)/(A): CI = CD50 (LLC-MK2)/IC50 (plaque); for IC50: Coxsackievirus, plaque reduction, LLC-MK2 cells, 37° C.
in vitro [6] = conditions: human, hela cells
[7] = tested on: rhinovirus type 14 (HRV14); test: Inhibition of HRV14 cytopathogenic effect (CPE) in HeLa cells; assay type: cell-based; conditions: for IC50: Enterovirus, HRV14, * Virus CPE inhibition assay, HeLa cells, 33° C.; for CI HRV14 (D)/(B): CI = CD50 (HeLa)/IC50 (virus CPE)
[8] = tested on: coxsackievirus type B4 (CB4); test: Inhibition of CB4 cytopathogenic effect (CPE) in LLC-MK2 cells; assay type: cell-based; conditions: for CI CB4 (C)/(A): CI = CD50 (LLC-MK2)/IC50 (virus CPE); for IC50: Coxsackievirus, * Virus CPE inhibition assay, LLC-MK2 cells, 37° C.
[9] = tested on: enterovirus type 70 (EV70); test: Inhibition of EV70 cytopathogenic effect (CPE) in LLC-MK2 cells; assay type: cell-based; conditions: for CI EV70 (C)/(A): CI = CD50 (LLC-MK2)/IC50 (virus CPE); for IC50: Enterovirus D, * Virus CPE inhibition assay, LLC-MK2 cells, 33° C.
[10] = Cytotoxicity, morphology of LLC-MK2 cells; conditions: monkey
[11] = Cytotoxicity, morphology of HeLa cells; conditions: human

Structure (SMILES)	IC50 [1]	CI EV70 (C)/(A) [2]	IC50 [2]	IC50 [3]	CC50 (in vitro [4])	CI CB4 (C)/(A) [5]	IC50 [5]	CC50 (in vitro [6])	IC50 [7]	IC50 [9]	CC50 [10]	also measured
CCCn1c(CNc2ccncc2)nc2ccccc21 [XII]	3.6 µg/mL (≈ 13.5 µM)	> 465	4.3 µg/mL (≈ 16.1 µM)	> 50 µg/mL	> 2000 µg/mL	> 4,255	0.47 µg/mL (≈ 1.76 µM)	–	–	–	–	CI Polio2 (C)/(A) [1]: > 556; onset of CB4-induced hypoglycemia (CB4 strain 637): inhibited the onset of CB4-induced hypoglycemia
Cc1ccc2nc(CNc3ccncc3)n(-c3ccccc3)c2c1 [XLIII]	–	–	–	–	> 100 µg/mL	–	–	> 100 µg/mL	> 100 µg/mL	17.8 µg/mL (≈ 56.6 µM)	–	CI CB4 (C)/(A) [8]: > 31; IC50 [8]: 3.2 µg/mL (≈ 10.2 µM); CI EV70 (C)/(A) [9]: > 6
CCc1ccc2c(c1)nc(CNc1ccncc1)n2-c1ccccc1 [XLIV]	–	–	–	–	> 100 µg/mL	–	–	> 100 µg/mL	17.8 µg/mL (≈ 54.2 µM)	3.2 µg/mL (≈ 9.74 µM)	–	CI HRV14 (D)/(B) [7]: > 6; CI CB4 (C)/(A) [8]: > 15; IC50 [8]: 6.8 µg/mL (≈ 20.7 µM); CI EV70 (C)/(A) [9]: > 31
CC(C)Cn1c(CNc2ccncc2)nc2ccccc21 [XLIX]	–	–	> 100 µg/mL	–	> 2000 µg/mL	–	–	–	> 100 µg/mL	–	–	CI CB4 (C)/(A) [8]: > 952; IC50 [8]: 2.1 µg/mL (≈ 7.49 µM)
Fc1ccc2nc(CNc3ccncc3)n(-c3ccccc3)c2c1 [XLVIII]	–	–	–	–	–	–	–	–	–	> 100 µg/mL	> 100 µg/mL	IC50 [8]: > 100 µg/mL
Clc1ccc2nc(CNc3ccncc3)n(-c3ccccc3)c2c1 [XLVII]	> 100 µg/mL	> 130	2.3 µg/mL (≈ 6.87 µM)	4.4 µg/mL (≈ 13.1 µM)	> 300 µg/mL	> 250	1.2 µg/mL (≈ 3.58 µM)	17.8 µg/mL (≈ 53.2 µM)	–	–	–	CI HRV14 (D)/(B) [3]: 4
CCc1ccc2nc(CNc3ccncc3)n(-c3ccccc3)c2c1 [XLV]	> 100 µg/mL	35	1.6 µg/mL (≈ 4.87 µM)	–	56.2 µg/mL (≈ 171 µM)	11	5 µg/mL (≈ 15.2 µM)	56.2 µg/mL (≈ 171 µM)	5.6 µg/mL (≈ 17.1 µM)	–	–	CI HRV14 (D)/(B) [7]: 10
Cc1cc2nc(CNc3ccncc3)[nH]c2cc1Cl [XXIX]	52 µg/mL (≈ 191 µM)	118	1.5 µg/mL (≈ 5.5 µM)	3.8 µg/mL (≈ 13.9 µM)	177 µg/mL (≈ 648 µM)	15	11.5 µg/mL (≈ 42.2 µM)	56.2 µg/mL (≈ 206 µM)	–	–	–	CI Polio2 (C)/(A) [1]: 3; CI HRV14 (D)/(B) [3]: 15
Cc1cc2nc(CNc3ccncc3)[nH]c2cc1Br [XXVIII]	34 µg/mL (≈ 107 µM)	88	2 µg/mL (≈ 6.31 µM)	3.6 µg/mL (≈ 11.3 µM)	–	13	13.5 µg/mL (≈ 42.6 µM)	–	–	–	177 µg/mL (≈ 557 µM)	CI Polio2 (C)/(A) [1]: 5; CC50 [11]: 56.2 µg/mL (≈ 177 µM); CI HRV14 (D)/(B) [3]: 15
Clc1cc(Cl)c2nc(CNc3ccncc3)[nH]c2c1 [XXVII]	–	–	–	–	> 100 µg/mL	–	–	17.8 µg/mL (≈ 60.7 µM)	> 17.8 µg/mL	> 100 µg/mL	–	–
Cc1cc(Cl)c2nc(CNc3ccncc3)[nH]c2c1 [XXVI]	–	–	–	–	1410 µg/mL (≈ 5180 µM)	–	–	56.2 µg/mL (≈ 206 µM)	> 56.2 µg/mL	> 100 µg/mL	–	–
Cc1cc(Cl)cc2[nH]c(CNc3ccncc3)nc12 [XXV]	–	–	–	–	707 µg/mL (≈ 2590 µM)	–	–	17.8 µg/mL (≈ 65.3 µM)	17.8 µg/mL (≈ 65.3 µM)	56.2 µg/mL (≈ 206 µM)	–	CI EV70 (C)/(A) [9]: 13
COc1cc2nc(CNc3ccncc3)[nH]c2cc1Cl [XXXIII]	–	–	–	–	–	–	–	–	–	56.2 µg/mL (≈ 195 µM)	> 100 µg/mL	CI EV70 (C)/(A) [9]: > 2
Cn1c(CNc2ccncc2)nc2cc(Cl)ccc21 [XXXVIII]	> 100 µg/mL	–	115 µg/mL (≈ 422 µM)	> 50 µg/mL	–	> 2	56 µg/mL (≈ 205 µM)	–	–	–	> 100 µg/mL	–
CCc1ccc2c(c1)nc(CNc1ccncc1)n2C [XXXVII]	> 100 µg/mL	> 5	22 µg/mL (≈ 82.6 µM)	20 µg/mL (≈ 75.1 µM)	–	–	> 50 µg/mL	–	–	–	> 100 µg/mL	–
